Twelve compounds from patent US11332473B2, “Substituted pyrazolo[3,4-d]pyrimidines as Wee1 inhibitors” (NUVATION BIO INC., priority 2019, dated 2022) can be followed below.

The subject of one assay is A427 cells. As to the kind of experiment: Cytotoxicity assay in A427 cell line (resazurin). The assay is classed as cell-based. Particulars: Homo sapiens, A-427; A427 lung epithelial cell line, 72 hr, inhibition of proliferation. Here is the method: A427 (HTB-53; ATCC), a lung epithelial cell line, was seeded in medium (MEM, 41090101; Gibco) at a cell count of 1500 cells per 100 μL per well in a 96 well edge plate (167425; ThermoFisher). Cells were allowed to grow at 37° C. for 24 hr in 5% CO2 environment (culture conditions) in a Nuaire incubator (humidified). Serially diluted test compounds (100 μL) within the desired testing concentration ranges were added to the culture plate and the cells were further incubated in culture conditions for 72 hr. The experiment was terminated at the designated incubation time by replacing the medium with 100 μL of 1 mM of resazurin (R7017; Sigma) prepared in culture medium, and the plates were further incubated in culture conditions for 4-6 hr. Fluorescence was recorded using a multimodal plate reader (Biotek Synergy Neo) at an excitation wavelength of 535 nm and emission wavelength of 590 nm to obtain relative fluorescence units. Data were analysed as follows: the background fluorescence (blank containing only medium) value was subtracted from each reading and normalized with the vehicle control (DMSO treated cells) to obtain percent survival/proliferation. Percent survival was subtracted from 100 to get the percent inhibition of proliferation which was used to calculate IC50 values. Potency of compounds in other cell lines (such as A549, AsPc-1, Panc 10.05, A172, U-87MG) may be determined in an analogous manner.

Another assay addresses WEE1 kinase enzyme (Homo sapiens (Human), UniProt P30291). The experiment in a line: WEE1 IC50 determination, LanthaScreen Terbium Labeled TR-FRET kinase assay. The assay is classed as biochemical. Particulars: WEE1 enzyme 1 nM, ATP 10 μM. Here is the method: IC50 values of compounds against WEE1 kinase enzyme were determined by LanthaScreen™ Terbium Labeled TR-FRET assay. Kinase assays were performed in 1X kinase buffer (#PV6135, Invitrogen, Life Technologies Grand Island, N.Y.) where total reaction volume was 10 μL in low-volume 384-well plates (#4511, Corning). Serially diluted compounds (3-fold) were incubated with WEE1 Enzyme (1 nM) (#PR7373A, Invitrogen, Life Technologies, Grand Island, N.Y.) for 10 min; a mixture of ATP (10 μM) (#A1852, Sigma, St. Louis, Mo.) and fluorescent-PolyGT substrate (200 nM) (#PV3610, Invitrogen, Life Technologies Grand Island, N.Y.) was added and incubated in dark at room temperature for 1 h. After 1 h, 10 μL stop solution containing Terbium labeled antibody (4 nM) (#PV3529, Invitrogen, Life Technologies Grand Island, N.Y.) and EDTA (#E5134, Sigma, St. Louis, Mo.) (20 mM) in TR-FRET dilution buffer (#PV3574, Invitrogen, Life Technologies Grand Island, N.Y.) was added. Readings were taken in a Synergy Neo Plate reader (BioTek, Winooski, Vt.) at single excitation of 340 nm and dual emission at 495 nm and 520 nm respectively.
The % activity of test samples was calculated as (Sample−Min)*100/(Max−Min). [Max: DMSO control, complete reaction with enzyme & DMSO and Min: No enzyme & DMSO].
For orientation: In TR-FRET formats the signal depends on donor and acceptor labels being close together.

The test system of assay [1] is phospho-CDC2 in A427 cells. As to the kind of experiment: Phospho-CDC2 (Tyr15) sandwich ELISA in A427 cells. The assay is classed as cell-based. Particulars: Homo sapiens, A-427. Here is the method: (§1) Changes in the levels of phospho-CDC2 following treatment of cells with test compounds were assessed by enzyme-linked immunosorbent assay (ELISA). A427 cells or AsPC-1 cells were plated in 6-well plates and cultured for 24 hr to approximately 80-90% confluency. Medium was replaced, and the cells were treated with the vehicle control or the test compound at several different concentrations. After incubation of treated cells in cell culture conditions for a specified time (e.g., 24 hr), cells were rinsed with ice-cold PBS and lysed in 1× cell lysis buffer containing protease inhibitors and phosphatase inhibitors. The cells were scraped from the plate with a cell scraper after a brief incubation on ice and transferred to a centrifuge tube, and then subjected to three freeze-thaw cycles in liquid nitrogen and a 37° C. water bath for further lysis. The lysates were centrifuged to pellet cell debris (using, for example, a 10 min centrifugation of 2000× g at 4° C.) and the supernatants transferred to fresh tubes on ice. The protein concentrations of the samples were estimated by the Bradford method or equivalent. The ELISA was carried out with the PathScan® Phospho-CDC2 (Tyr15) Sandwich ELISA Kit (Cat. #7176, Cell Signaling Technology, Danvers, Mass.) according to the manufacturer's instructions.
Background: An ELISA detects its analyte on a solid surface through an enzyme-linked reagent.

For a further assay, the target named is PKMYT1 kinase (Homo sapiens (Human), UniProt Q99640). As to the kind of experiment: PKMYT1 IC50 determination, HotSpot Kinase Assay. The assay is classed as biochemical. Particulars: 10 μM ATP, 33P-ATP, Myelin Basic Protein substrate. Here is the method: Inhibition of PKMYT1 kinase activity by test compounds was measured by the HotSpot Kinase Assay at Reaction Biology Corporation (Malvern, Pa.). Briefly, Myelin Basic Protein substrate was prepared in Reaction Buffer (20 mM Hepes (pH 7.5), 10 mM MgCl2, 1 mM EGTA, 0.01% Brij35, 0.02 mg/mL BSA, 0.1 mM Na3VO4, 2 mM DTT, 1% DMSO). PKMYT1 kinase was delivered into the substrate solution and gently mixed. Test compounds in 100% DMSO were added into the kinase reaction mixture by Acoustic technology (Echo550; nanoliter range) and incubated for 20 min at room temperature. ^33P-ATP was delivered into the reaction mixture to initiate the reaction. Reactions were carried out at 10 μM ATP. After a 2 hour incubation at room temperature, kinase activity was detected by P81 filter-binding method. […] A nonlinear regression model with a sigmoidal dose response and variable slope within GraphPad Prism (GraphPad Software, San Diego, Calif.) was used to calculate the IC50 value of individual test compounds.

For assay [2], the system named is phospho-CDC2 in AsPC-1 cells. As to the kind of experiment: Phospho-CDC2 (Tyr15) sandwich ELISA in AsPC-1 cells. The assay is classed as cell-based. Particulars: Homo sapiens, ASPC1. On the procedure: as §1

What is called IC50 is the concentration at which inhibition is half-maximal.

Bounds are passed on as bounds.

PKMYT1 kinase, sequence (Q99640 whole entry): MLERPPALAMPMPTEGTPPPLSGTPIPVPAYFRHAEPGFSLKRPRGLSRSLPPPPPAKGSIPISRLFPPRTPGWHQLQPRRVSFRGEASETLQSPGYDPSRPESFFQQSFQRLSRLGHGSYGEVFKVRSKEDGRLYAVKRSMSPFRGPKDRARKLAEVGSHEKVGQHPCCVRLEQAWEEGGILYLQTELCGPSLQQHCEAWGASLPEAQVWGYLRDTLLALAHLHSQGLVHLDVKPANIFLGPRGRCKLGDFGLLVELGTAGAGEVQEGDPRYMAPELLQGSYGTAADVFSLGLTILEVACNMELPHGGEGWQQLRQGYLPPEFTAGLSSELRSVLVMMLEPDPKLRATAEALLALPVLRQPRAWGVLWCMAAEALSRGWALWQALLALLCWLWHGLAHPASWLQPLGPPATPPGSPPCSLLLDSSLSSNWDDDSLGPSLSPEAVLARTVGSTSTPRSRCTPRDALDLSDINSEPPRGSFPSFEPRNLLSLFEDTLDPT
WEE1 kinase enzyme, sequence (P30291 whole entry): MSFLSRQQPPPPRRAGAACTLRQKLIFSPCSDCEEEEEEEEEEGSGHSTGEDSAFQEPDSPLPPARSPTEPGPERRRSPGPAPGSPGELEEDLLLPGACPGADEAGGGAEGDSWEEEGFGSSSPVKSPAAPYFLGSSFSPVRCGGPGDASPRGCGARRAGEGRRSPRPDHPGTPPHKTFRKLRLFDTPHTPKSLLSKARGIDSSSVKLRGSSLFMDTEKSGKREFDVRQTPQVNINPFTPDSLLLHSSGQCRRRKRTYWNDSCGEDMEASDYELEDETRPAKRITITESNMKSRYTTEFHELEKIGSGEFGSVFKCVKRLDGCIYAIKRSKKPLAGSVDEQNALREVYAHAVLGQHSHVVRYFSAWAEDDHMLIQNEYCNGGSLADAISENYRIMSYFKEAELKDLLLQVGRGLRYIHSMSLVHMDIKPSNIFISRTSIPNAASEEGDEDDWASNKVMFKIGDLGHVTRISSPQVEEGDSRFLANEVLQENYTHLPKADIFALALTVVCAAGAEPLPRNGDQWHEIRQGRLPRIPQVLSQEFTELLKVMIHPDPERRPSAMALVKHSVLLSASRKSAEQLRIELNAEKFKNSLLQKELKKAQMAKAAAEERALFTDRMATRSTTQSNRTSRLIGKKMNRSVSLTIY

As to `CC(C)n1c(=O)c2cnc(Nc3ccc4c(c3)CCNC4)nc2n1-c1ccc(F)c(C(C)(C)F)n1` [1.1, 1-(5-fluoro-6-(2-fluoropropan-2-yl)pyridin-2-yl)-2-isopropyl-6-((1,2,3,4-tetrahydroisoquinolin-6-yl)amino)-1,2-dihydro-3H-pyrazolo[3,4-d]pyrimidin-3-one], the IC50 in the assay on A427 cells is 3.74 µM; on WEE1 kinase enzyme, 0.006 µM; in assay [1] it was 0.339 µM; on PKMYT1 kinase, 6.57 µM.
For `CC(C)(F)c1nc(-n2c3nc(Nc4ccc5c(c4)CCNC5)ncc3c(=O)n2C2CC2)ccc1F` [1.2, 2-cyclopropyl-1-(5-fluoro-6-(2-fluoropropan-2-yl)pyridin-2-yl)-6-((1,2,3,4-tetrahydroisoquinolin-6-yl)amino)-1,2-dihydro-3H-pyrazolo[3,4-d]pyrimidin-3-one], in that order: 3.41 µM, 0.036 µM, 0.952 µM and 10.2 µM.
For `CCn1c(=O)c2cnc(Nc3ccc4c(c3)CNCC4)nc2n1-c1cccc(C2(C#N)CC2)n1` [1.38, 1-(6-(2-ethyl-3-oxo-6-((1,2,3,4-tetrahydroisoquinolin-7-yl)amino)-2,3-dihydro-1H-pyrazolo[3,4-d]pyrimidin-1-yl)pyridin-2-yl)cyclopropane-1-carbonitrile], in that order: 0.401 µM, 0.004 µM, 0.176 µM and 0.223 µM.
`CC(C)n1c(=O)c2cnc(Nc3ccc4c(c3)CCNC4)nc2n1-c1cccc(C2(C#N)CC2)n1` [1.43, 1-(6-(2-isopropyl-3-oxo-6-((1,2,3,4-tetrahydroisoquinolin-6-yl)amino)-2,3-dihydro-1H-pyrazolo[3,4-d]pyrimidin-1-yl)pyridin-2-yl)cyclopropane-1-carbonitrile]: the IC50 in the assay with A427 cells was found to be 1.48 µM; at WEE1 kinase enzyme it was 0.009 µM; in assay [1], 0.32 µM; on PKMYT1 kinase it was 5.63 µM.
Turning to `CC(C)n1c(=O)c2cnc(Nc3ccc4c(c3)CCNC4(C)C)nc2n1-c1cccc(C2(C#N)CC2)n1` [1.45, 1-(6-(6-(1,1-dimethyl-1,2,3,4-tetrahydroisoquinolin-6-ylamino)-2-isopropyl-3-oxo-2,3-dihydro-1H-pyrazolo[3,4-d]pyrimidin-1-yl)pyridin-2-yl)cyclopropanecarbonitrile], the IC50 with A427 cells is 2.18 µM; in assay [2] it was 0.285 µM; on WEE1 kinase enzyme it was 0.01 µM; in assay [1], 0.066 µM; against PKMYT1 kinase, 1.54 µM.
On to `CC(C)n1c(=O)c2cnc(Nc3ccc4c(c3)CCNC4)nc2n1-c1ccc(F)c(C(C)(C)O)n1` [1.249, 1-(5-fluoro-6-(2-hydroxypropan-2-yl)pyridin-2-yl)-2-isopropyl-6-((1,2,3,4-tetrahydroisoquinolin-6-yl)amino)-1,2-dihydro-3H-pyrazolo[3,4-d]pyrimidin-3-one], for which the IC50 in the assay on A427 cells turned out to be 0.592 µM; at WEE1 kinase enzyme, 0.016 µM; in assay [1] it was 0.23 µM; at PKMYT1 kinase it was 20.1 µM.
In the case of `CC(C)n1c(=O)c2cnc(Nc3ccc4c(c3)CCNC4(C)C)nc2n1-c1ccc(F)c(C(C)(C)O)n1` [1.251, 6-((1,1-dimethyl-1,2,3,4-tetrahydroisoquinolin-6-yl)amino)-1-(5-fluoro-6-(2-hydroxypropan-2-yl)pyridin-2-yl)-2-isopropyl-1,2-dihydro-3H-pyrazolo[3,4-d]pyrimidin-3-one], the IC50 in the assay with A427 cells came to 12.4 µM; at WEE1 kinase enzyme it was 0.007 µM; against PKMYT1 kinase, 6.69 µM.
For `CCn1c(=O)c2cnc(Nc3ccc4c(c3)CCNC4)nc2n1-c1ccc(F)c(C(C)(C)O)n1` [1.261, 2-ethyl-1-(5-fluoro-6-(2-hydroxypropan-2-yl)pyridin-2-yl)-6-((1,2,3,4-tetrahydroisoquinolin-6-yl)amino)-1,2-dihydro-3H-pyrazolo[3,4-d]pyrimidin-3-one], in that order: 0.9 µM, 0.009 µM and 4.54 µM.
The corresponding values for `CC(C)n1c(=O)c2cnc(Nc3ccc4c(c3)CCNC4)nc2n1-c1nc(C(C)(C)C#N)ccc1F` [1.321, 2-(5-fluoro-6-(2-isopropyl-3-oxo-6-(1,2,3,4-tetrahydroisoquinolin-6-ylamino)-2,3-dihydro-1H-pyrazolo[3,4-d]pyrimidin-1-yl)pyridin-2-yl)-2-methylpropanenitrile] are 3.54 µM, 0.013 µM and 11.2 µM.
The corresponding values for `CC(C)n1c(=O)c2cnc(Nc3ccc4c(c3)CNCC4)nc2n1-c1nc(C(C)(C)C)c(Cl)s1` [1.349, 1-(4-(tert-butyl)-5-chlorothiazol-2-yl)-2-isopropyl-6-((1,2,3,4-tetrahydroisoquinolin-7-yl)amino)-1,2-dihydro-3H-pyrazolo[3,4-d]pyrimidin-3-one] are 0.49 µM, 0.384 µM and 19.9 µM.
On to `CC(C)n1c(=O)c2cnc(Nc3ccc4c(c3)CCNC4)nc2n1-c1csc(C2CC2)n1` [1.464, 1-(2-cyclopropylthiazol-4-yl)-2-isopropyl-6-((1,2,3,4-tetrahydroisoquinolin-6-yl)amino)-1,2-dihydro-3H-pyrazolo[3,4-d]pyrimidin-3-one], for which the results for the IC50 with A427 cells, on WEE1 kinase enzyme and against PKMYT1 kinase were 24.6 µM, 0.049 µM and 28.8 µM, respectively.
For `CC(C)n1c(=O)c2cnc(Nc3ccc4c(c3)CNCC4)nc2n1-c1csc(C2CC2)n1` [1.465, 1-(2-cyclopropylthiazol-4-yl)-2-isopropyl-6-((1,2,3,4-tetrahydroisoquinolin-7-yl)amino)-1,2-dihydro-3H-pyrazolo[3,4-d]pyrimidin-3-one], in that order: over 30 µM, 0.045 µM and over 30 µM.
